These results are taken from patent US20210123016A1, “REGULATORS OF HUMAN PLURIPOTENT STEM CELLS AND USES THEREOF” (Novartis AG, priority 2018, published 2021).

“Also recorded” adds a separate entry of the source.

The test system of test [1] is iCas9 H1-hESCs. Put plainly: Assaying survival without ROCK inhibitor (single cell dissociation and replating, IncuCyte confluence / time-lapse). It counts as cell-based, human. The note with it: control and PAWR knockout hPSCs, in the presence of thiazovivin (ROCK inhibitor). The procedure: Control and mutant iCas9 H1-hESCs were dissociated with accutase for 10 minutes. Flowmi 40-micron cell strainers (BEL-ART H13680-0040) were used to ensure a uniform single cell suspension prior to replating cells. Cells were plated at a density of 10,500 to 21,000 cells/cm^2 plus or minus thiazovivin (ROCK inhibitor). Timelapse images were taken in 1 hr intervals using IncuCyte zoom (Essen Biosciences). The confluence processing analysis tool (IncuCyte Zoom Software) calculated confluency for each sample.

Test [2] deals with iCas9 H1-hESCs. Put plainly: Phalloidin stain of filamentous (F-) ACTIN in fixed cells after dissociation. Type of test: cell-based, human. The following applies: thiazovivin treated cells after dissociation, stain at 3.5 h. The procedure: Immunofluorescence staining of fixed cells was performed as described by Ihry et. al., 2017. Protein lysates were made by vortexing cell pellets in […] (Thermo Scientific 89901) supplemented with Halt protease inhibitor cocktail (Thermo Scientific 78430) and phosphatase inhibitors (Thermo Scientific 1862495). Samples were incubated at 4 C for 10 minutes before centrifugation at 14,000×g for 10 minutes at 4 C. Supernatants were transferred to new tubes and quantified using the BCA protein assay kit (Thermo Scientific 23225) and a SpectraMax Paradigm (Molecular Devices) plate reader. Samples were prepared with NuPAGE LDS sample buffer 4× (Invitrogen NP0008) and NuPAGE sample reducing agent (Invitrogen NP0009) and heated for 10 minutes at 70 C. Chameleon Duo Pre-stained Protein Ladder (LiCOR P/N 928-60000) was loaded alongside 10 ug of protein per sample on a NuPAGE 4-12% Bis-Tris Protein Gels, 1.5 mm, 10-well (Invitrogen NP0335BOX). Gel electrophoresis was performed at 150 V for 1 hr in NuPAGE MOPS SDS Running buffer (20×) (Invitrogen NP0001) using a XCell SureLock Mini-Cell (Thermo Scientific E10002). Transfer was performed using an iBlot 2 dry blotting system (Thermo IB21002 and IB23002) as described by manufacturer. Blots were blocked in TBS blocking buffer (LiCOR 927-50000) for 1 hour at room temperature. […]

Turning to `O=C(NCc1ccccc1)c1csc(Nc2ccncn2)n1` [thiazovivin], the “survival after single cell dissociation and replating” value in the test with iCas9 H1-hESCs [1] was “survive replating; also recorded: survived as single cells”. In the test with iCas9 H1-hESCs [2], the “cytoskeletal organization (F-ACTIN, phalloidin)” value was “increased surface area, a fanned-out shape with actin stress fibers, and a large circular adhesion belt-like structure”.
